Biological target: T1, human capsaicin receptor (Homo sapiens, UniProt Q8NER1)
T1 construct: A cDNA encoding full length human capsaicin receptor recited in U.S. Pat. No. 6,482,611 was subcloned in the plasmid pBK-CMV; expressed in transfected cells
Test: Calcium mobilization assay (Example 6)
Assay type: cell-based
Details: concentration required to provide a 50% decrease in the fluorescence response of cells exposed to one IC50 of capsaicin
Protocol: Human embryonic kidney (HEK293) cells were transfected with the pBK-CMV expression construct encoding the full length human capsaicin receptor using standard methods. The transfected cells were selected for two weeks in media containing G418 (400 μg/ml) to obtain a pool of stably transfected cells. Independent clones were isolated from this pool by limiting dilution to obtain clonal stable cell lines for use in subsequent experiments.
Cells transfected with expression plasmids (as described in Example 4) and thereby expressing human capsaicin receptor are seeded and grown to 70-90% confluency in FALCON black-walled, clear-bottomed 96-well plates (#3904, BECTON-DICKINSON, Franklin Lakes, N.J.). The culture medium is emptied from the 96 well plates and FLUO-3 AM calcium sensitive dye (Molecular Probes, Eugene, Oreg.) is added to each well (dye solution: 1 mg FLUO-3 AM, 440 μL DMSO and 440 μl 20% pluronic acid in DMSO, diluted 1:250 in Krebs-Ringer HEPES (KRH) buffer (25 mM HEPES, 5 mM KCl, 0.96 mM NaH2PO4, 1 mM MgSO4, 2 mM CaCl2, 5 mM glucose, 1 mM probenecid, pH 7.4), 50 μl diluted solution per well). Plates are covered with aluminum foil and incubated at 37° C. for 1-2 hours in an environment containing 5% CO2. After the incubation, the dye is emptied from the plates, and the cells are washed once with KRH buffer, and, resuspended in KRH buffer.
Agonist (e.g., olvanil, capsaicin, or RTX)-induced calcium mobilization is monitored using either FLUOROSKAN ASCENT (Labsystems, Franklin, Mass.) or FLIPR (fluorometric imaging plate reader system, Molecular Devices, Sunnyvale, Calif.) instruments. Varying concentrations of the antagonists ruthenium red or capsazepine (RBI; Natick, Mass.) are added to cells concurrently with agonist (e.g., 25-50 nM capsaicin). For agonist-induced calcium responses, data obtained between 30 and 60 seconds after agonist application are used to generate the IC50 values. KALEIDAGRAPH software (Synergy Software, Reading, Pa.) is used to fit the data to the equation: y=a*(1/(1+(b/x)^c)) to determine the IC50 for the response. In this equation, y is the maximum fluorescence signal, x is the concentration of the agonist or antagonist, a is the Emax, b corresponds to the IC50 value and c is the Hill coefficient.
To measure the ability of a test compound to antagonize (inhibit) the response of cells expressing capsaicin receptors to capsaicin or other vanilloid agonist, the IC50 of capsaicin is first determined. An additional 20 μl of KRH buffer and 1 μl DMSO is added to each well of cells, prepared as described above. 100 μl capsaicin in KRH buffer is automatically transferred by the FLIPR instrument to each well. An 8-point concentration response curve, with final capsaicin concentrations of 1 nM to 3 μM, is used to determine capsaicin IC50.
Test compounds are dissolved in DMSO, diluted in 20 μl KRH buffer so that the final concentration of test compounds in the assay well is between 1 μM and 5 μM, and added to cells prepared as described above. The 96 well plates containing prepared cells and test compounds are incubated in the dark, at room temperature for 0.5 to 6 hours. It is important that the incubation not continue beyond 6 hours. Just prior to determining the fluorescence response, 100 μl capsaicin in KRH buffer at twice the IC50 concentration determined from the concentration response curve is automatically added by the FLIPR instrument to each well of the 96 well plate for a final sample volume of 200 μl and a final capsaicin concentration equal to the IC50. The final concentration of test compounds in the assay wells is between 1 μM and 5 μM. […] Antagonists of the capsaicin receptor decrease this response by at least about 20%, preferably by at least about 50%, and most preferably by at least 80% as compared to matched control. The concentration of antagonist required to provide a 50% decrease is the IC50 for the antagonist, and is preferably below 1 micromolar, 100 nanomolar, 10 nanomolar or 1 nanomolar. […]

T1 sequence (Q8NER1 whole entry): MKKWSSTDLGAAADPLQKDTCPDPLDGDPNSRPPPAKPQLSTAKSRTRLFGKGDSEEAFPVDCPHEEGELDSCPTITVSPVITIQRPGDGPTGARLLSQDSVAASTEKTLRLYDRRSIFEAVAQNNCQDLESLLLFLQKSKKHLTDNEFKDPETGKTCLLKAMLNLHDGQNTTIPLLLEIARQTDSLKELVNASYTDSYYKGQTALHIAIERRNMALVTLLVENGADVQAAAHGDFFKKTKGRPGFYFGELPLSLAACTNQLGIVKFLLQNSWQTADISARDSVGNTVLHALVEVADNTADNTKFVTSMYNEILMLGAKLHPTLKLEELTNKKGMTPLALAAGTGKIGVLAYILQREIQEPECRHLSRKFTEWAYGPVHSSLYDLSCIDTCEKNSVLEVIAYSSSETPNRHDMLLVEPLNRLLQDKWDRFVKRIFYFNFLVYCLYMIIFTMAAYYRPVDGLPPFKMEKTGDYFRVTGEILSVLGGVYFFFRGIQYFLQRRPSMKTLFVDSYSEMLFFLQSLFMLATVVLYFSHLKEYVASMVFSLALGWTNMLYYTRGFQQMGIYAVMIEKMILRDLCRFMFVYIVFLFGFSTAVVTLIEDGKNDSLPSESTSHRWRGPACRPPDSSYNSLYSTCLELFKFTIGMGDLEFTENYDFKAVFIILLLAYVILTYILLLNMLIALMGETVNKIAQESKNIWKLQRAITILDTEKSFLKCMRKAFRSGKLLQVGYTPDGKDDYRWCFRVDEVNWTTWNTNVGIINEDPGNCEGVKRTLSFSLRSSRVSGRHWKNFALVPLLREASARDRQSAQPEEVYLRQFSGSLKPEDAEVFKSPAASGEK

Row | IC50 [µM] | Structure (SMILES)
1 | ≤ 1 | COc1cc(Nc2ccc(C(F)(F)F)cn2)c2ccc(-c3ncccc3C(F)(F)F)nc2n1 [Compound 96, 2-methoxy-7-[3-(trifluoromethyl)pyridin-2-yl]-N-[5-(trifluoromethyl)pyridin-2-yl]-1,8-naphthyridin-4-amine]
2 | ≤ 1 | CCCc1cc(Nc2ccc(S(C)(=O)=O)cn2)c2ccc(-c3ncccc3C(F)(F)F)nc2n1 [Compound 123, N-[5-(methylsulfonyl)pyridin-2-yl]-2-propyl-7-[3-(trifluoromethyl)pyridin-2-yl]-1,8-naphthyridin-4-amine]
3 | ≤ 1 | COCc1cc(Nc2ccc(C(F)(F)F)cc2)c2ccc(-c3ncccc3F)nc2n1 [Compound 62, 7-(3-fluoropyridin-2-yl)-2-(methoxymethyl)-N-[4-(trifluoromethyl)phenyl]-1,8-naphthyridin-4-amine]
4 | ≤ 1 | COCc1cc(Nc2ccc(C(C)(C)O)cc2)c2ccc(-c3ncccc3Cl)nc2n1 [Compound 53, 2-(4-{[7-(3-chloropyridin-2-yl)-2-(methoxymethyl)-1,8-naphthyridin-4-yl]amino}phenyl)propan-2-ol]
5 | ≤ 1 | C[C@@H]1CN(Cc2cc(Nc3ccc(C(F)(F)F)cc3)c3ccc(-c4ncccc4C(F)(F)F)nc3n2)C[C@H](C)O1 [Compound 24, 2-{[(2R,6S)-2,6-dimethylmorpholin-4-yl]methyl}-N-[4-(trifluoromethyl)phenyl]-7-[3-(trifluoromethyl)pyridin-2-yl]-1,8-naphthyridin-4-amine]
6 | ≤ 1 | CCN(CC)Cc1cc(Nc2ccc(C(F)(F)F)cn2)c2ccc(-c3ncccc3C(F)(F)F)nc2n1 [Compound 94, 2-[(diethylamino)methyl]-7-[3-(trifluoromethyl)pyridin-2-yl]-N-[5-(trifluoromethyl)pyridin-2-yl]-1,8-naphthyridin-4-amine]
7 | ≤ 1 | COCc1cc(Nc2ccc(S(=O)(=O)C(C)C)cc2)c2ccc(-c3ncccc3C(F)(F)F)nc2n1 [Compound 13, N-[4-(isopropylsulfonyl)phenyl]-2-(methoxymethyl)-7-[3-(trifluoromethyl)pyridin-2-yl]-1,8-naphthyridin-4-amine]
8 | ≤ 1 | CCS(=O)(=O)N(C)Cc1cc(Nc2ccc(C(F)(F)F)cc2)c2ccc(-c3ncccc3C(F)(F)F)nc2n1 [Compound 71, N-methyl-N-({4-{[4-(trifluoromethyl)phenyl]amino}-7-[3-(trifluoromethyl)pyridin-2-yl]-1,8-naphthyridin-2-yl}methyl)ethanesulfonamide]
9 | ≤ 1 | FC(F)(F)c1ccc(Nc2cc(Cl)nc3cc(-c4ncccc4C(F)(F)F)ccc23)cc1 [Compound 20, 2-chloro-N-[4-(trifluoromethyl)phenyl]-7-[3-(trifluoromethyl)pyridin-2-yl]quinolin-4-amine]
10 | ≤ 1 | CC(C)(C)c1ccc(Nc2cc(N3CCOCC3)nc3cc(-c4ncccc4C(F)(F)F)ccc23)cc1 [Compound 23, N-(4-tert-butylphenyl)-2-morpholin-4-yl-7-[3-(trifluoromethyl)pyridin-2-yl]quinolin-4-amine]
11 | ≤ 1 | CC(=O)c1cc(Nc2ccc(C(F)(F)F)cn2)c2ccc(-c3ncccc3C(F)(F)F)nc2n1 [Compound 133, 1-(7-[3-(trifluoromethyl)pyridin-2-yl]-4-{[5-(trifluoromethyl)pyridin-2-yl]amino}-1,8-naphthyridin-2-yl)ethanone]
12 | ≤ 1 | CCOc1cc(Nc2ccc(C(F)(F)F)cn2)c2ccc(-c3ncccc3C(F)(F)F)nc2n1 [Compound 45, 2-ethoxy-7-[3-(trifluoromethyl)pyridin-2-yl]-N-[5-(trifluoromethyl)pyridin-2-yl]-1,8-naphthyridin-4-amine]
13 | ≤ 1 | FC(F)(F)c1cnc(Nc2ccnc3nc(-c4ncccc4Cl)ccc23)nc1 [Compound 145, 7-(3-chloropyridin-2-yl)-N-[5-(trifluoromethyl)pyrimidin-2-yl]-1,8-naphthyridin-4-amine]
14 | ≤ 1 | CCCN(CCCO)Cc1cc(Nc2ccc(C(F)(F)F)cc2)c2ccc(-c3ncccc3C(F)(F)F)nc2n1 [Compound 79]
15 | ≤ 1 | COCc1cc(Nc2ccc3c(c2)CN(C)CC3(C)C)c2ccc(-c3ncccc3C(F)(F)F)nc2n1 [Compound 17, 2-(methoxymethyl)-7-[3-(trifluoromethyl)pyridin-2-yl]-N-(2,4,4-trimethyl-1,2,3,4-tetrahydroisoquinolin-7-yl)-1,8-naphthyridin-4-amine]
16 | ≤ 1 | COC(C)c1cc(Nc2ccc(C(C)=O)cn2)c2ccc(-c3ncccc3C(F)(F)F)nc2n1 (stereo not shown) [Compound 120, 1-[6-({2-(1-methoxyethyl)-7-[3-(trifluoromethyl)pyridin-2-yl]-1,8-naphthyridin-4-yl}amino)pyridin-3-yl]ethanone]
17 | ≤ 1 | Cc1ccc(Nc2ccnc3nc(-c4ncccc4C(F)(F)F)ccc23)nc1 [Compound 140, N-(5-methylpyridin-2-yl)-7-[3-(trifluoromethyl)pyridin-2-yl]-1,8-naphthyridin-4-amine]
18 | ≤ 1 | Cc1cc(Nc2ccc(C(F)(F)F)cc2)c2ccc(-c3ncccc3C(F)(F)F)nc2n1 [Compound 48, 2-methyl-N-[4-(trifluoromethyl)phenyl]-7-[3-(trifluoromethyl)pyridin-2-yl]-1,8-naphthyridin-4-amine]
19 | ≤ 1 | CC1CCCN1Cc1cc(Nc2ccc(C(F)(F)F)cc2)c2ccc(-c3ncccc3C(F)(F)F)nc2n1 (stereo not shown) [Compound 49, 2-[(2-methylpyrrolidin-1-yl)methyl]-N-[4-(trifluoromethyl)phenyl]-7-[3-(trifluoromethyl)pyridin-2-yl]-1,8-naphthyridin-4-amine]
20 | ≤ 1 | Oc1cc(Nc2ccc(C(F)(F)F)cn2)c2ccc(-c3ncccc3C(F)(F)F)nc2n1 [Compound 97, 7-[3-(trifluoromethyl)pyridin-2-yl]-4-{[5-(trifluoromethyl)pyridin-2-yl]amino}-1,8-naphthyridin-2-ol]
21 | ≤ 1 | CC(=O)c1ccc(Nc2cc(C(C)C)nc3nc(-c4ncccc4C(F)(F)F)ccc23)nc1 [Compound 116, 1-[6-({2-isopropyl-7-[3-(trifluoromethyl)pyridin-2-yl]-1,8-naphthyridin-4-yl}amino)pyridin-3-yl]ethanone]
22 | ≤ 1 | CCOc1cc(Nc2ccc(S(=O)(=O)C(F)(F)F)cc2)c2ccc(-c3ncccc3C(F)(F)F)nc2n1 [Compound 46, 2-ethoxy-7-[3-(trifluoromethyl)pyridin-2-yl]-N-{4-[(trifluoromethyl)sulfonyl]phenyl}-1,8-naphthyridin-4-amine]

Row | Structure (SMILES) | IC50 [µM]
23 | CC(C)COCc1cc(Nc2ccc(F)cc2)c2ccc(-c3ncccc3C(F)(F)F)nc2n1 [Compound 54, N-(4-fluorophenyl)-2-(isobutoxymethyl)-7-[3-(trifluoromethyl)pyridin-2-yl]-1,8-naphthyridin-4-amine] | ≤ 1
24 | CC(C)COCc1cc(Nc2ccc(S(=O)(=O)C(F)(F)F)cc2)c2ccc(-c3ncccc3C(F)(F)F)nc2n1 [Compound 74, 2-(isobutoxymethyl)-7-[3-(trifluoromethyl)pyridin-2-yl]-N-{4-[(trifluoromethyl)sulfonyl]phenyl}-1,8-naphthyridin-4-amine] | ≤ 1
25 | CC(C)COc1cc(Nc2ccc(C(C)(C)C)cc2)c2ccc(-c3ncccc3C(F)(F)F)cc2n1 [Compound 19, N-(4-tert-butylphenyl)-2-isobutoxy-7-[3-(trifluoromethyl)pyridin-2-yl]quinolin-4-amine] | ≤ 1

Source: patent US7488740B2, “Substituted quinolin-4-ylamine analogues” (Neurogen Corporation, priority 2003, dated 2009)
